“Also recorded” adds a separate entry of the source.
What was measured:
[1] = system: PBMCs or CBMCs; test: HEK-Blue TNFα assay on supernatants; format: cell-based, human; conditions: CBMCs compared with PBMCs; 4, 8 or 24 hours
Method: (§1) Poly(I:C) (5 μg/ml) (Invivogen), Poly(dA:dT) (5 μg/ml) (Sigma-Aldrich), 2′3′ cGAMP (10 μg/ml), 5′ triphosphate double stranded RNA (5′ ppp dsRNA) (2.5 μg/ml) and HSV-60 (2 μg/ml) (all from Invivogen) were transfected into PBMCs or CBMCs using TransIT-X2 (Mirus).
(§2) Measurement of cytokines—HEK Blue TNFα/IFNα/β Assays were performed as per the manufacturer's (Invivogen) instructions using Quanti-Blue Detection Reagent. SEAP levels were determined using a spectrophotometer plate reader at 630 nm. IFNα (3425-1H-6, Mabtech) and IP-10 (DY266, R&D Systems) were detected by sandwich ELISA. IFNα ELISA used pan specific IFNα antibodies, which allows detection of IFNα subtypes 1/13, 2, 4, 5, 6, 7, 8, 10, 14, 16 and 17. BioLegend LEGENDplex™ Human Inflammation Panel (13-plex) was carried out as per manufacturer's (Biolegend) instructions to determine levels of IFNγ, IL-10, IL-12p70 and IL-23. A BD LSR Fortessa cell analyser was used to acquire samples and BioLegend LEGENDplex™ software was used for analysis.

[2] = system: adult PBMCs or neonatal CBMCs; test: HEK-Blue IFNα/β SEAP assay on supernatants of stimulated mononuclear cells; format: cell-based, human; conditions: for innate immune response in neonatal and/or paediatric blood: compared with adult blood, summary statement
Method: Isolation of mononuclear cells and monocytes—Primary PBMCs or CBMCs were isolated from healthy human blood or cord blood. Monocytes were isolated by negative selection using Monocyte Isolation Kit II (Miltenyi). […] Cells were cultured at 37° C., 5% CO2, 95% air in RPMI-1640, with stable 2.5 mM L-glutamine and 0.5 mM sodium pyruvate with 10% FBS (all from Sigma-Aldrich).
as §1, §2

[3] = system: PBMCs or CBMCs; test: IFNα sandwich ELISA on supernatants; format: cell-based, human; conditions: for IFNα secretion (ELISA): CBMCs compared with PBMCs, 8 or 24 h
Method: as §1, §2

[4] = system: bovine PBMCs; test: Bovine IFN-γ ELISA on stimulated PBMCs; format: cell-based, cattle; conditions: calves <1 year old; ConA 1 μg/ml with or without LPS 100 pg/ml; 72 hours
Method: Bovine peripheral blood mononuclear cells were isolated from whole blood samples collected in 9m1 vacutainers containing Heparin anticoagulant. PBMCs were spun and separated using leucosep tubes (Cruinn) and a density gradient histopaque 1077 (Sigma-Aldrich) at a speed of 1200 g for 20 minutes. Red blood cell contamination was eliminated using sterile 0.25% sodium chloride (Baxter) as a lysis buffer. The cells were subsequently washed twice in PBS at a speed of 600 g for 10 minutes to remove impurities.
Cells were counted using a haemocytometer, microscope and trypan blue (Sigma Aldrich) and seeded at appropriate densities in tissue culture plates (Cruinn) containing media. The cells were incubated at 37° C. at 5% CO2 treated within hours of plating to avoid unwanted cell death.
When analysing the effects of IL-1β on T cell activation, cells were pre-treated with 250 μg/ml of IL-1 receptor antagonist (IL-1Ra) 40 minutes before stimulation with IL-1β (25 ng/ml). Cells were subsequently stimulated with concanavalin A (1 μg/ml) 1 hour after addition of IL-1β. Similarly, when analysing the effects of polydA:dT on T cell activation, cells were stimulated with polydA:dT (1 μg/ml) 1 hour before ConA treatment (1 μg/ml). LPS (100 pg/ml) primed cells were incubated with YVAD-FMK (10 μm), an inhibitor specific for caspase-1. After 40 minutes, the cells were stimulated with alum (50 μg/ml) for 24 hours and supernatants were then harvested and analysed by ELISA for IL-1β
Capture antibodies (50 μl/well), diluted in the appropriate buffers, were dispensed into the wells of high binding plates (Greiner Bio-One) and incubated overnight at room temperature or 4° C. For analysis of IL-17, the ELISA plates were pre-coated with capture antibody by the manufacturing before delivery. The wells were washed with PBS/Tween 3 times and the plates were then incubated with 150 μl of blocking buffer for 1 hour at room temperature. The plates were washed again before supernatant (neat or diluted) and recombinant standards were added for 1 hour at room temperature. Following this, the plates were washed and 50 μl of detection antibody was added to the wells for a period of 1 or 2 hours at room temperature. After washing, 50 μl diluted streptavidin-HRP was added to the plate for between 30 minutes and 1 hour. After the final wash, 50 μl of 3,3′-, 5,5′-Tetramethylbenzidine (TMB) substrate was added and the plates were incubated in the dark. The reaction was stopped by addition of 1M sulphuric acid and the absorbance readings were measured at 450 nm using a microtitre plate reader. The cytokine concentrations were calculated using a linear regression standard curve from recombinant cytokines of known concentration. Skanit™ software was used to estimate values.

[5] = system: PBMCs or CBMCs; test: Quantitative RT-PCR of TNFα, IFNα and CXCL10 mRNA; format: cell-based, human; conditions: CBMCs vs PBMCs
Method: as §1
Quantitative RT-PCR—Total RNA from PBMCs or CBMCs was extracted using trizol extraction as previously described (16) and was reverse transcribed using MMLV Reverse Transcriptase (Promega) according to the manufacturer's protocol. This cDNA served as template for amplification of target genes, along with the ‘housekeeping’ gene βActin, by real-time PCR with SensiFast SYBR Green (Bioline) to determine the relative amounts of CXCL10, IFNα and TNFα mRNA. The ABI 7900HT system (Applied Biosystems) was used for real-time PCR, and the cycling threshold method (2^−(ΔΔCt)) was used for relative quantification by comparative method after normalization to βActin expression.

[6] = system: IRF7; test: TransAM IRF7 activation assay on nuclear extracts; format: cell-based, human; conditions: CBMCs; LPS 15 min, CpG 1 h, Poly(I:C) transfection 1 h
Method: (§3) IRF3/7 activation—Active Motif TransAM™ IRF3 and IRF7 assays were carried out on nuclear extracts from PBMCs or CBMCs, harvested as per manufacturer's (Active Motif) instructions, to detect and quantify IRF3 or IRF7 activation.

[7] = system: IRF3; test: TransAM IRF3 activation assay on nuclear extracts; format: cell-based, human; conditions: CBMCs
Method: as §3

[8] = system: PBMCs or CBMCs; test: CXCL10 (IP-10) ELISA; format: cell-based, human; conditions: CBMCs compared with PBMCs
Method: as §1, §2

[9] = system: PBMCs or CBMCs; test: BioLegend LEGENDplex Human Inflammation Panel; format: cell-based; conditions: CBMCs and PBMCs; Poly(I:C) 24 h, LPS 4 h, CpG ODN 24 h
Method: as §1, §2

[10] = system: mononuclear cells from cord blood, children's blood or adult blood; test: HEK-Blue IFNα/β and TNFα assays on mononuclear cells of cord blood, children and adults; format: cell-based, human; conditions: transfection 24 h, 4-24 months, 2-5 years, 6-11 years
Source text: Umbilical cord blood samples were obtained from term births following normal pregnancy, labour and delivery at National Maternity Hospital (NMH), Holles St, Dublin 2. […] Venous blood from infants, children and adolescents of various ages was collected during elective surgical procedures where no indication of infection was present (such as hydrocele repair, umbilical hernia repair, onychocryptosis, orchipexy repair) in Our Lady's Children's Hospital Crumlin (OLCHC), Dublin 12. […] Volumes drawn were age and weight dependent, according to standard, approved guidelines. Ethics approval was obtained from the Ethics Committees of NMH and OLCHC and informed consent was obtained from each subject or their parent/guardian. Adult blood samples were from healthy adults, supplied by the Irish Blood Transfusion Service. • Poly(I:C), Poly(dA:dT) and cGAMP were obtained from Invivogen • Poly (dA:dT) is a repetitive synthetic double-stranded DNA sequence of poly(dA-dT)-poly(dT-dA) http://www.invivopen.com/poly-dadt-naked • Poly (I:C) comprises long strands of inosine poly(I) homopolymer annealed to strands of cytidine poly(C) homopolymer http://www.invivogen.com/polyic-hmw. • cGAMP is cyclic [G(2′,5′)pA(3′,5′)p]; Formula: […], 2Na Methodology
Isolation of mononuclear cells and monocytes—Primary PBMCs or CBMCs were isolated from healthy human blood or cord blood. Monocytes were isolated by negative selection using Monocyte Isolation Kit II (Miltenyi). Monocyte purity was assessed using CD14 staining and was routinely 85-95%. Cells were cultured at 37° C., 5% CO2, 95% air in RPMI-1640, with stable 2.5 mM L-glutamine and 0.5 mM sodium pyruvate with 10% FBS (all from Sigma-Aldrich).
as §1, §2

CCCc1nc2c(N)nc3ccccc3c2s1 [CL075, reference compound]
TNFα production [1]: no significant difference in TNFα production

Nc1nc2c(ncn2[C@@H]2O[C@@H]3COP(=O)(O)O[C@H]4[C@@H](O)[C@H](n5cnc6c(N)ncnc65)O[C@@H]4COP(=O)(O)O[C@@H]2[C@@H]3O)c(=O)[nH]1 [cGAMP, cyclic [G(2′,5′)pA(3′,5′)p]]
innate immune response in neonatal and/or paediatric blood [2]: robust innate immune response in neonatal and/or paediatric blood | IFNα secretion (ELISA) [3]: CBMCs responded equally well or with enhanced IFNα-production when compared with PBMCs | level of IFNα produced, relative to Poly(I:C) or Poly(dA:dT) ([3]; adult and neonatal cells): lower than that in response to either Poly(I:C) or Poly(dA:dT) | TNFα production [1]: significantly more TNFα production from neonatal cells than from adult cells

interleukin 1: cytokine interleukin 1 added with ConA [reference compound]
IFN-γ secretion by ConA stimulated bovine PBMCs [4]: enhanced IFN production

polyinosinic-polycytidylic acid [Poly(I:C)]
innate immune response in neonatal and/or paediatric blood [2]: robust innate immune response in neonatal and/or paediatric blood | type I IFN (IFNα/β) production ([2]; neonatal CBMCs compared with adult PBMCs, stimulation 4, 8 or 24 h): no inhibition of type I IFN production in CBMCs when compared to PBMCs | IFNα secretion (ELISA) [3]: equivalent or enhanced CNA sensor responses in neonates compared to adults | TNFα production [1]: significantly more TNFα production from neonatal cells than from adult cells | CXCL10 mRNA expression ([5]; 4 h): no inhibition of transcription | IFNα mRNA expression ([5]; 24 h): no inhibition of transcription | TNFα mRNA expression ([5]; CNA 4 h, LPS 2 h): no significant difference in TNFα levels | IRF7 activation [6]: not significantly activated | increase in IRF3 activation above basal levels [7]: ~80% | CXCL10 protein secretion [8]: no significant difference in the CXCL10 response between PBMCs or CBMCs | IFNγ [9]: induces Th1 polarising IL-12p70 and IFNγ in CBMCs; also recorded: significantly increased in CBMCs compared to PBMCs; also recorded: neonates produced significantly higher levels of both IL-12p70 and IFNγ | IL-10 [9]: low but detectable, with no significant difference between adult and cord blood cells noted; also recorded: no difference in levels of anti-inflammatory IL-10 or Th17-polarising IL-23 between neonates and adults | IL-12p70 [9]: induces Th1 polarising IL-12p70 and IFNγ in CBMCs; also recorded: increased in CBMCs compared to PBMCs; also recorded: significantly enhanced response to Poly(I:C) transfection was found in CBMCs compared to PBMCs; also recorded: neonates produced significantly higher levels of both IL-12p70 and IFNγ | IL-23 [9]: low but detectable, with no significant difference between adult and cord blood cells noted; also recorded: no difference in levels of anti-inflammatory IL-10 or Th17-polarising IL-23 between neonates and adults | TNFα production across age groups [10]: maintenance of cord blood responsiveness to CNA was also observed for both Poly(I:C) and Poly(dA:dT)-induced TNFα production to the age of 24 months | production of type I IFN across age groups [10]: maintained throughout childhood; also recorded: maintained up to the age of two

— patent US12629415B2, “Vaccine adjuvants” (THE PROVOST, FELLOWS, FOUNDATION SCHOLARS, AND THE OTHER …, priority 2018, dated 2026)
